Experimental data reported in US20150272881A1, “REDUCED PYRROLOQUINOLINE QUINONE GEL” (MITSUBISHI GAS CHEMICAL COMPANY, INC., priority 2011, published 2015).

Assay type: physicochemical
From the text: The “solubility” in this description means the limit of dissolving of a solute in a solvent; it can be expressed as the concentration of a solute in a saturated solution. The solubility of the oxidized pyrroloquinoline quinone derivative or a salt thereof can be appropriately decided depending on the temperature of the mixture.

O=C([O-])c1cc(C(=O)[O-])c2c(n1)C(=O)C(=O)c1cc(C(=O)O)[nH]c1-2.[Na+].[Na+] [oxidized pyrroloquinoline quinone disodium]
solubility: 0.299 g with respect to 100 g of water
